{
  "source": "ChEMBL document CHEMBL1201862",
  "about": "“PubChem BioAssay data set” (2004)",
  "key": {"[1]": {"target": "Intestinal-type alkaline phosphatase (Homo sapiens, UniProt P09923)", "sequence (P09923 whole entry)": "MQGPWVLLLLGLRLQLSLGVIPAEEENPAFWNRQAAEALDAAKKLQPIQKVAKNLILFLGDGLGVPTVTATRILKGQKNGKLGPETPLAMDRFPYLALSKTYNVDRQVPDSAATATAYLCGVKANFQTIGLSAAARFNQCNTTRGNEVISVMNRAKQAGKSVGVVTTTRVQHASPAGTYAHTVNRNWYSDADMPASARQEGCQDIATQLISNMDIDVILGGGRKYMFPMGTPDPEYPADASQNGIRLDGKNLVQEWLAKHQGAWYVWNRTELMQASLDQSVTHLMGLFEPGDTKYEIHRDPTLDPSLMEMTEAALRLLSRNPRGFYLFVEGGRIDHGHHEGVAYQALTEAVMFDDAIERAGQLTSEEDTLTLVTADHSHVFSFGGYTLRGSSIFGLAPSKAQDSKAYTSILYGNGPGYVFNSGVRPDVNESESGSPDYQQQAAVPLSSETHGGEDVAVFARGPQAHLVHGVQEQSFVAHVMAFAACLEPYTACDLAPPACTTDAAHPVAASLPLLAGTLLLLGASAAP", "assay": "inhibition of human intestinal alkaline phosphatase – biochemical, dose response (AID 488876)", "type": "functional"}, "Vero": {"tested_on": "Vero", "assay": "viability of Vero cells under compound – cytotoxicity control for flavivirus capping enzyme inhibitors (AID 588742)", "type": "functional", "conditions": "Chlorocebus sabaeus"}, "[2]": {"target": "T1, Zinc finger protein mex-5 (Caenorhabditis elegans, UniProt Q9XUB2)", "T1 sequence (Q9XUB2 whole entry)": "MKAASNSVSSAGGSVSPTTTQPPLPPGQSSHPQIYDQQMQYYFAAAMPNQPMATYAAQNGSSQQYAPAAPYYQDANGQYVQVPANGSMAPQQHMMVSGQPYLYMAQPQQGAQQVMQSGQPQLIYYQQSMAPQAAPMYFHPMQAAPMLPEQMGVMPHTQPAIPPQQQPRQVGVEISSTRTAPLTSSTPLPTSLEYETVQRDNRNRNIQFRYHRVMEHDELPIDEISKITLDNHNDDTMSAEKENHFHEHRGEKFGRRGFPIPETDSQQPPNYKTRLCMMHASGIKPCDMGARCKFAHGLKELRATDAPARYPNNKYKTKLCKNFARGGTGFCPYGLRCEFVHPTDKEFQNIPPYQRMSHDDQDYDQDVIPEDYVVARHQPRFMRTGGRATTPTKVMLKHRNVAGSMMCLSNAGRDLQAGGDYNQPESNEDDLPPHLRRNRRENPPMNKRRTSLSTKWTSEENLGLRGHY", "assay": "potency of MEX-5 RNA-binding blockers – biochemical, C. elegans, fluorescence polarization, dose response (AID 1960)"}, "[3]": {"target": "Glycogen synthase kinase-3 beta (Homo sapiens, UniProt P49841)", "sequence (P49841 whole entry)": "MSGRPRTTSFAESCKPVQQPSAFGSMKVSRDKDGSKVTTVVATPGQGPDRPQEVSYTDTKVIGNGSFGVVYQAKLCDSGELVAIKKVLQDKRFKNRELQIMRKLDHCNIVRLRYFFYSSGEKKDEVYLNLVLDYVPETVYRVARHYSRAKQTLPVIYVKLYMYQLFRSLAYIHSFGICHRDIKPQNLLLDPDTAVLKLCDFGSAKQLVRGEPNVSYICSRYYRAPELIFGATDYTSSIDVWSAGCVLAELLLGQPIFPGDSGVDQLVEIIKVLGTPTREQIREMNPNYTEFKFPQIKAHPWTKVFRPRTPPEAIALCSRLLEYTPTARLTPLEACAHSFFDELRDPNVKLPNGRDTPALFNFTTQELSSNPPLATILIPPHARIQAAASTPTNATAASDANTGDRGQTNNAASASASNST", "type": "functional"}, "BJ": {"tested_on": "BJ", "assay": "BJ-TERT fibroblast viability loss – cell-based, RAS-independent, luminescence, dose response (AID 1933)", "type": "functional", "conditions": "Homo sapiens"}, "Nonstructural protein 1": {"target": "Nonstructural protein 1 (Influenza A virus, UniProt Q194T2)", "sequence (Q194T2 whole entry)": "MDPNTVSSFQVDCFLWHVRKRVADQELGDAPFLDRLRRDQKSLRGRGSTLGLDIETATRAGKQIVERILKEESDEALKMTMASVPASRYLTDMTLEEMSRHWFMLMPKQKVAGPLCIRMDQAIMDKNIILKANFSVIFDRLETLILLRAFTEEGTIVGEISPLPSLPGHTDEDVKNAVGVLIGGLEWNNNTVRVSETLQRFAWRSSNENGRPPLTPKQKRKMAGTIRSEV", "type": "functional, Influenza A virus (A/California/07/2009(H1N1))"}, "[4]": {"target": "Testis-specific serine/threonine-protein kinase 2 (Homo sapiens, UniProt Q96PF2)", "sequence (Q96PF2 whole entry)": "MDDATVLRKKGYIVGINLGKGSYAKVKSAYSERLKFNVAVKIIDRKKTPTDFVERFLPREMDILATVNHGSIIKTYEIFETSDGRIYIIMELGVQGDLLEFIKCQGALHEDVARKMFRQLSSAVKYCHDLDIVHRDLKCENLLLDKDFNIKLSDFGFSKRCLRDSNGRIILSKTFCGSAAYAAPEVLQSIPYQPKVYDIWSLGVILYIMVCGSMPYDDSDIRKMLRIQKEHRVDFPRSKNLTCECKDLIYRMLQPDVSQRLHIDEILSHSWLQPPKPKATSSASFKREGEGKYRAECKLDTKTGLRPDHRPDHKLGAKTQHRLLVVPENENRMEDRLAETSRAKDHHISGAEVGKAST", "type": "functional"}, "[5]": {"target": "MAP kinase-activated protein kinase 2 (Homo sapiens, UniProt P49137)", "sequence (P49137 whole entry)": "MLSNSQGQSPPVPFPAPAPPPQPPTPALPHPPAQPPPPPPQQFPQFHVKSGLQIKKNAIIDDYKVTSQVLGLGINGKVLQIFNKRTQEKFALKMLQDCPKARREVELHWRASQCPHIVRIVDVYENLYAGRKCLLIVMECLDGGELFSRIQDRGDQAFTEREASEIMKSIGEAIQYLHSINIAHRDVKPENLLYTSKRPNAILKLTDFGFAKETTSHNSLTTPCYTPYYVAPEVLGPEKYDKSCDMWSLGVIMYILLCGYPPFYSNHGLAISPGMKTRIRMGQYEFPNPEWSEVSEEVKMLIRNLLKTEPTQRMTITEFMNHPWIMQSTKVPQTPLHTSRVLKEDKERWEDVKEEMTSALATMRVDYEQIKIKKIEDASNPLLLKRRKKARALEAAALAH", "type": "functional"}, "[6]": {"target": "Serine/threonine-protein kinase Nek4 (Homo sapiens, UniProt P51957)", "sequence (P51957 whole entry)": "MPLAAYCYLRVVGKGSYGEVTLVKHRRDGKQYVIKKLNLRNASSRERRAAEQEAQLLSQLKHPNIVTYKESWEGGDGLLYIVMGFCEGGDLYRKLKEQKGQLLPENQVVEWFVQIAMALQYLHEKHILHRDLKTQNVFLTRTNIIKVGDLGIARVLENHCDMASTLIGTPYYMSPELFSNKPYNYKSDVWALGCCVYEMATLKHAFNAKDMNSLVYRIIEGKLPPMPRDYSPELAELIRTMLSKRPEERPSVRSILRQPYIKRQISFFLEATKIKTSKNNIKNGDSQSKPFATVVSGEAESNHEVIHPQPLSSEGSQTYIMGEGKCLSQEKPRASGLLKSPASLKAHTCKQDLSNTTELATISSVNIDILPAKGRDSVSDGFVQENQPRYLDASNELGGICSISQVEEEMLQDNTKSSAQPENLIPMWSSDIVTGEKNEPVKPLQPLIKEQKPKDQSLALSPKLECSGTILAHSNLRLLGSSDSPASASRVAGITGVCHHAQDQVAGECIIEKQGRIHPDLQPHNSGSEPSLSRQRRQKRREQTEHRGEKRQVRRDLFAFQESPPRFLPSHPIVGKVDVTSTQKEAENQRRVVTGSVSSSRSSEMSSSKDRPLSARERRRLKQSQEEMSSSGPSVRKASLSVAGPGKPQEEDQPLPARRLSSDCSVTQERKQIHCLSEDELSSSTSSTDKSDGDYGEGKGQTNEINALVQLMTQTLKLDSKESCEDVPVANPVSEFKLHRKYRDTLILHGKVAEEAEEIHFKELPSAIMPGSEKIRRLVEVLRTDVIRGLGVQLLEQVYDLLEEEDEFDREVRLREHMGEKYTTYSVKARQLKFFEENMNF", "type": "functional"}, "[7]": {"target": "3-phosphoinositide-dependent protein kinase 1 (Homo sapiens, UniProt O15530)", "sequence (O15530 whole entry)": "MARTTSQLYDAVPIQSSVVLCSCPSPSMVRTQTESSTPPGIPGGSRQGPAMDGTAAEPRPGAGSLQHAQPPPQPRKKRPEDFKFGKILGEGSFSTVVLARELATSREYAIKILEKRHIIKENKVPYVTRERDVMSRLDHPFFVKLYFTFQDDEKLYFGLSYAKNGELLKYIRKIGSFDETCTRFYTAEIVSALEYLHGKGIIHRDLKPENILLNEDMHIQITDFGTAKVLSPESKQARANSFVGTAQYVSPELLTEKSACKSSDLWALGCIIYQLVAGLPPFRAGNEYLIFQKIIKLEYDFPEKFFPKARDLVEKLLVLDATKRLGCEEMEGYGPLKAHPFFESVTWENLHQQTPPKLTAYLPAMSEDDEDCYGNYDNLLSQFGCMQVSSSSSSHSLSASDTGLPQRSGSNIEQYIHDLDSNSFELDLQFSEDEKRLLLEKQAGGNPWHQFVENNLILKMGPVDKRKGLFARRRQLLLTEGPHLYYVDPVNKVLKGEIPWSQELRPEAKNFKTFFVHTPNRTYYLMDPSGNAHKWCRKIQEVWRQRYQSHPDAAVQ", "type": "functional"}},
  "note": "Calls of active or inactive are those of the source.",
  "data": [
    {"molecule": "O=C1/C(=C\\c2cccc(O)c2O)SC(=S)N1Cc1ccccc1", "values": [
      {"measurement": "IC50", "setting": "[1]", "value": "> 100 µM (inactive)"},
      {"measurement": "CC50", "setting": "Vero", "value": "16.1 µM (active)"}
    ]},
    {"molecule": "COc1cccc2c1NC(C(=O)O)C1CC=CC21", "note": "(stereo not given)", "values": [
      {"measurement": "EC50", "setting": "[2]", "value": "8.25 µM (active)"}
    ]},
    {"molecule": "COc1c(-c2nc3ccccc3[nH]2)c(O)cc2oc(C)cc(=O)c12", "values": [
      {"measurement": "Ki", "setting": "[3]", "value": "0.398 µM (active)"}
    ]},
    {"molecule": "CCc1ccc(S(=O)(=O)/N=C2\\C=C(Nc3ccc(O)cc3)C(=O)c3ccccc32)cc1", "values": [
      {"measurement": "EC50", "setting": "BJ", "value": "1.51 µM (active)"},
      {"measurement": "IC50", "setting": "Nonstructural protein 1", "value": "5.88 µM (active)"}
    ]},
    {"molecule": "Cc1ccc(F)c(NC(=O)Nc2ccc(-c3cccc4[nH]nc(N)c34)cc2)c1", "note": "[LINIFANIB]", "values": [
      {"measurement": "Ki", "setting": "[4]", "value": "> 1.58 µM (inactive)"},
      {"measurement": "Ki", "setting": "[5]", "value": "> 7.94 µM (inactive)"},
      {"measurement": "Ki", "setting": "[6]", "value": "> 6.31 µM (inactive)"},
      {"measurement": "Ki", "setting": "[7]", "value": "> 3.98 µM (inactive)"}
    ]}
  ]
}
